In the NIST ThermoML archive (doi:10.1016/j.fluid.2006.09.017):
± gives the expanded uncertainty stated by the source.

Conditions: Liquid

Row | Compound | vapor or sublimation pressure (258.15 K) | vapor or sublimation pressure (268.15 K) | vapor or sublimation pressure (275.15 K) | vapor or sublimation pressure (283.15 K) | vapor or sublimation pressure (293.15 K) | vapor or sublimation pressure (303.15 K) | vapor or sublimation pressure (313.15 K) | vapor or sublimation pressure (323.15 K) | vapor or sublimation pressure (333.15 K) | vapor or sublimation pressure (343.15 K) | vapor or sublimation pressure (263.15 K)
1 | FCF [difluoromethane] | 488.1 ± 15 kPa | 690.6 ± 22 kPa | 866.5 ± 27 kPa | 1107 ± 35 kPa | 1475 ± 46 kPa | 1928 ± 60 kPa | 2478 ± 77 kPa | 3141 ± 98 kPa | 3933 ± 120 kPa | 4877 ± 150 kPa | –
2 | FCC(F)(F)F [1,1,1,2-tetrafluoroethane] | 163.9 ± 5.9 kPa | 243.3 ± 7.9 kPa | 314.6 ± 10 kPa | 414.6 ± 13 kPa | 571.7 ± 18 kPa | 770.2 ± 24 kPa | 1017 ± 32 kPa | 1318 ± 41 kPa | 1682 ± 52 kPa | 2117 ± 66 kPa | 200.6 ± 6.8 kPa
